# Laboratory results from publication PMC9993459, “A novel selective spleen tyrosine kinase inhibitor SKI-O-703 (cevidoplenib) ameliorates lupus nephritis and serum-induced arthritis in murine models” (Clinical and Experimental Immunology, 2022).
# Columns and labels:
# RET = RET (Homo sapiens, UniProt P07949); experiment: Kinase assay (LANCE Ultra TR-FRET), RET; format: biochemical
# Method: Kinase assays were conducted in 384-well plates using LANCE ultra 66 time-resolved fluorescence resonance energy transfer (TR-FRET) methods, according to the manufacturer’s instructions (Perkin-Elmer). In brief, each kinase was pre-incubated with a serially diluted compound for 30 min, incubated with ULight poly-GT peptide substrate and ATP for up to 1 h. Thirty minutes after adding Eu-labeled anti-phosphopeptides Ab diluted in LANCE Detection Buffer, LANCE signals were measured with an EnVision multilabel reader (Perkin-Elmer).
# [1] = biological target: T1, phosphorylated Syk (p-Syk) in human CD14+ monocytes (Homo sapiens, UniProt P43405); experiment: p-Syk ELISA in IgG-stimulated human CD14+ monocytes (FcγR signal); format: cell-based
# T1 construct: endogenous in cells; host or cells: Ramos (ATCC), THP-1 (ATCC), human CD14+ monocytes (Lonza)
# Method: THP-1 and Ramos cell lines and human CD14^+ monocytes were purchased from the American Type Culture Collection (ATCC) and Lonza, respectively. After treatment with Syk inhibitors for 1 h, THP-1 cells and monocytes were stimulated for 15 min with 100 μg/ml human IgG (Invitrogen), and Ramos cells were stimulated with 2 μg/ml anti-human IgM monoclonal Ab (mAb) (Bathyl). Cells were lysed in RIPA buffer containing 1% NP-40, 1% sodium deoxycholate, 0.1% SDS, and a mixture of protease and phosphatase inhibitors (Thermo Scientific). The lysates were assayed by standard immunoblotting methods and ELISA. Primary Abs used for immunoblotting were anti-phospho-Syk ([…]), anti-phospho-Vav (Y174), anti-phospho-PLCγ1 (Y1217) and anti-phospho-BLNK (Y96) Abs (all from Cell Signaling). ELISAs to detect phospho-Syk (Y525/526) were performed according to the manufacturer’s protocol (Cell Signaling).
# Ramos cells (A), human primary monocytes (B), and THP cells (C) were pretreated with inhibitors at the indicated concentrations and stimulated with anti-human IgM (A) and human IgG (B and C). […] The relative intensities of protein phosphorylation levels were quantitated with reference to each lane of β-actin control bands. (D) Ramos cells, human primary monocytes, and THP cells were treated as in A–C for 24 h and levels of phosphorylated Syk (p-Syk) were measured by ELISA.
# mouse primary B cells = experiment: Annexin V/7-AAD apoptosis assay in B cells; format: cell-based; conditions: 24 h, effect more potent with anti-IgM than LPS
# Method: Splenic CD19^+ B cells from C57BL/6 mice were sorted by MACS (Milteny Biotec), stained with 3 μM cell proliferation dye eFluor 670 (CP670; eBioscience), and cultured for 72 h in the presence of either 10 μg/ml LPS (Sigma Aldrich) or 5 μg/ml anti-mouse IgM (Jackson Immuno Research Laboratories), 10 μg/ml anti-CD40 mAb (Biolegend) and 10 ng/ml IL-4 (Peprotech), and assayed by FACS. To detect apoptotic cells, unstimulated cells were cultured for 24 h, stained with Annexin V and 7-aminoactinomycin D (7-AAD), and assayed by FACS.
# Figure 2: in vitro effects of SKI-O -703 on the proliferation, survival, and differentiation of B cells. Mouse primary B cells were labeled with CP670, and stimulated with either anti-IgM mAb, CD40L and IL-4 (A) or LPS (B) for 72 h in the presence or absence of SKI-O-703 and tofacitinib at the indicated concentrations; they were then assayed by FACS. (C and D) Mouse primary B cells were cultured as in A and B for 24 h, stained with Annexin V and 7-AAD, and assayed by FACS. Representative FACS profiles and graphs displaying mean Annexin V-positivity are shown. (E) Human primary B cells were stimulated with CpG ODN plus IL-2 (to detect IgM and IgG) or CpG ODN 2006 plus IFN-α (to detect IL-6) in the presence or absence of inhibitors. The culture supernatants were assayed by ELISA. Graphs are expressed as % positivity relative to the controls (without inhibitor). […]
# BALB/c mice = experiment: K/BxN serum-transferred arthritis (KSTA) in BALB/c mice; format: in vivo, mouse
# Method: Arthritogenic serum was collected from 8-to-15-week-old K/BxN mice. Eight-week-old male BALB/c mice were injected intraperitoneally (ip) with 100 μl of K/BxN serum to induce arthritis. The mice were treated orally twice daily with 42 or 84 mpk of SKI-O-703 from that day for 9 days. In some experiments, mice were injected ip every 2 days with 400 μg/mouse of the TNF blocker, etanercept (Amgen). Ankle thickness was measured, and arthritic index was determined daily, as described previously. On day 9 post-induction, spleens and draining (inguinal and axillary) lymph nodes (LNs) were removed post mortem and assayed by histopathological and immunologic methods.
# Hind paws were removed from KSTA mice, fixed, and decalcified in 5.5% EDTA in phosphate-buffered formalin. The paws were embedded in paraffin, sectioned, and stained with hematoxylin and eosin (H&E). Arthritic changes in the ankle and foot were scored (0–4 scale) and expressed as a histopathologic index, as described previously. Safranine O-stained sections were scored (0–4 scale) and expressed as the score for cartilage erosion, as described.
# Single-cell suspensions of spleen and LN cells were prepared as previously described. Joint tissues from hind paws of KSTA mice were dissected free of soft tissue and bones, digested with 100 μg/ml Liberase (Roche) for 45 min at 37 °C, and filtered through a 70-μm-pore cell strainer (SPL Life Sciences) to prepare single cell suspensions of synovial infiltrates. The single cell suspensions were stained with an appropriate combination of mAbs and analyzed by FACS. The mAbs used were: CD138-PE, B220-PerCP or -APC-cy7, FAS-PE, CD19-PerCP or -APC, CD21-FITC or -APC, CD43-APC, CD23-PE-cy7, CD8a-PE, CD25-APC-cy7, CXCR5-biotin, GL7-FITC, CD45.2-FITC, CD27-FITC, Ki-67-FITC, Gr-1-FITC, CD4-FITC or -APC-cy7, phospho-Syk-PE, CD11b-PE or -PerCP, PD-1-APC, CD44-APC-cy7, and F4/80-PerCP mAbs (all from BD Biosciences, eBioscience or Biolegend). Streptavidin-PerCP was purchased from BD Biosciences.
# RET, sequence (P07949 29-1114, species assumed): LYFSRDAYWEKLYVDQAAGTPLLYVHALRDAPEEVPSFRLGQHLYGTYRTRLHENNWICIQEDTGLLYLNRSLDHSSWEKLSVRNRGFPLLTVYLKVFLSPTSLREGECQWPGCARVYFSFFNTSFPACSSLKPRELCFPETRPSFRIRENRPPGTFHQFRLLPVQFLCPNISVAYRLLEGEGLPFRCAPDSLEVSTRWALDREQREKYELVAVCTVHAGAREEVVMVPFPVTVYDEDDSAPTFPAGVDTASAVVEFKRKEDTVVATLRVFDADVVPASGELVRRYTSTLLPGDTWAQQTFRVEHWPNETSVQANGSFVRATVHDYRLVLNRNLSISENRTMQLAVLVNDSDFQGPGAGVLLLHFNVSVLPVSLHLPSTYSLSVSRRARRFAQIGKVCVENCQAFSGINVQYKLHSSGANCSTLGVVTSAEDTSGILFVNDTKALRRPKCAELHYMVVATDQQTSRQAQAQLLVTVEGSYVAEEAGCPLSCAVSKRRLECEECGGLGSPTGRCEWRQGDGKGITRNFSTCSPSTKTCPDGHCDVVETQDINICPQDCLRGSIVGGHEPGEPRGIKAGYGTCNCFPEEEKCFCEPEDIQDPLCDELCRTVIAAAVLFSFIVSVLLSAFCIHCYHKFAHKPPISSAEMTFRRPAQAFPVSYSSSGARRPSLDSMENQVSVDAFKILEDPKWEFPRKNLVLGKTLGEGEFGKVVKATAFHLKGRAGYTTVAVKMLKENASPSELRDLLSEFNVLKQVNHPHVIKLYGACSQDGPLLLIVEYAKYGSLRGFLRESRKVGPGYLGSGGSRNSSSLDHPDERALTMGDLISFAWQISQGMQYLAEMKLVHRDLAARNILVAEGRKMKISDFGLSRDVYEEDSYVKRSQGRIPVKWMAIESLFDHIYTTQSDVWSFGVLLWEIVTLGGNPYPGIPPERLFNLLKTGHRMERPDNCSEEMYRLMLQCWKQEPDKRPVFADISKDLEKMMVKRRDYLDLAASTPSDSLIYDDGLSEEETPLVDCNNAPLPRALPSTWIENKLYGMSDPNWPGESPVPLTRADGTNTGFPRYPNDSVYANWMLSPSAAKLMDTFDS
Structure (SMILES),Ratio to Syk (RET) (RET; IC50 ratio to Syk),"IC50 (RET; kinase activity, TR-FRET) [nM]",IC50 [1] [nM],Proportions of early and late apoptotic B cells (mouse primary B cells),Ankle thickness and arthritic index (BALB/c mice; 42 mpk (lower dose) oral twice daily for 9 days),"Progression of KSTA (ankle thickness, arthritic index, inflammatory cell infiltration) (BALB/c mice; 42 mpk SKI-O-703 combined with TNF blocker etanercept, synergistic)",Ankle thickness and arthritic index (BALB/c mice; 84 mpk oral twice daily for 9 days),"Numbers of whole immune cells (CD45+) infiltrated into synovial tissue (BALB/c mice; 84 mpk, mainly neutrophils and macrophages)","Histopathologic index and cartilage erosion score (BALB/c mice; high dose (84 mpk), day 9)","Joint-draining LN total cells, B cells and GC B cells (BALB/c mice; high dose, day 9, lymphadenopathy disappeared)","Progression of KSTA (BALB/c mice; suboptimal dose 42 mpk, alone)"
Cc1nn(-c2ccnc(Nc3ccc4c(c3)c(C(=O)C3CC3)cn4C)n2)cc1CN1C[C@H](O)CO1 [SKI-O-592],67,412,191,–,–,–,–,–,–,–,–
"CS(=O)(=O)O.CS(=O)(=O)O.Cc1nn(-c2ccnc(Nc3ccc4c(c3)c(C(=O)C3CC3)cn4C)n2)cc1CN1C[C@H](O)CO1 [SKI-O-703, (S)-cyclopropyl(5-((4-(4-((4-hydroxyisoxazolidin-2-yl)methyl)-3-methyl-1H-pyrazol-1-yl)pyrimidin-2-yl)amino)-1-methyl-1H-indol-3-yl)methanone dimesylate]",–,–,–,increased the proportions of early and late apoptotic cells,the reduction was less pronounced,significantly suppressed disease progression,dramatically reduced to the basal level,significantly reduced,significantly reduced,significantly reduced numbers,did not significantly inhibit progression of KSTA
